Assay in all cases: growth of human tumour cells (NCI), 48 h
Test [1] relates to A498 renal.
Test [2] has as its system A549 NSCLC.
Test [3] deals with CAKI-1 renal.
Test [4] deals with COLO 205 colon.
In test [5] the test system is NCI-H460 lung.
The test system of test [6] is NCI-H522 lung.
Test [7] deals with OVCAR-8 ovarian.
The subject of test [8] is RXF 393 renal.
Test [9] concerns U251 CNS.
Test [10] deals with UACC-257 melanoma.

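Interpolation was linear, between the two tested concentrations surrounding the appropriate level; five concentrations were tested over 48 hours in 96-well plates. At the GI50, growth is halved. The concentration for full growth arrest is given as TGI.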 Bounds are passed on as bounds.

The text below walks through data of PubChem BioAssay (NCI).

For the molecule `CCN1CCC[C@H]1c1cc(O)c2c(c1OC)C[C@H]1C[C@H]3[C@H](N)C(=O)C(C(N)=O)=C(O)[C@@]3(O)C(=O)C1=C2O`, the GI50 is 0.0315 µM in [1]; 0.207 µM in test [2]; 0.0293 µM in [3]; 0.0583 µM in test [4]; 0.0602 µM in test [5]; 0.0562 µM in test [6]. The GI50 is 0.0587 µM in test [7], 0.0312 µM in [8], 0.0442 µM in [9] and 0.126 µM in test [10]. Moreover, the TGI in test [1] came out at 0.2 µM; in test [2], 8.72 µM; in [3] it was 0.62 µM; in test [4] it was 0.682 µM; in [5], 1.9 µM; in [6], 0.799 µM. Also, the TGI in [7] was found to be 3.01 µM; in test [8], 0.247 µM; in test [9] it was 1.88 µM; in [10] it was 2.11 µM.

With `Nc1ccc2c(c1)C(=O)c1ccc(F)cc1-2`, the TGI in test [1], in [2], in [3], in [4], in test [5] and in test [6] was over 100 µM throughout. For the same molecule, the TGI in test [7], in test [8], in [9] and in [10] was over 100 µM in each case.

For `O=C(NCCCN1CCN(CCCNC(=O)c2cnc3ccccc3n2)CC1)c1cnc2ccccc2n1`, the TGI in test [1], in [2], in test [3], in test [4], in [5] and in test [6] was over 100 µM in each case. Moreover, the TGI in [7], in test [8], in [9] and in test [10] was over 100 µM each time.

`O=C(CCc1nnc2s/c(=C\c3ccccc3)c(=O)n12)Nc1cc(Cl)ccc1Cl`: the TGI in test [1], in [2], in [3], in test [4], in test [5] and in [6] was over 100 µM each time. Also, the TGI in test [7], in test [8], in test [9] and in test [10] was over 100 µM throughout.

In the case of `CN(C)CC(C(=O)c1ccccc1)c1ccccc1` (configuration not stated), the GI50 is 4.44 µM in test [1]; 6.76 µM in test [2]; 0.966 µM in test [3]; 1.77 µM in test [4]; 3.93 µM in test [5]; 1.3 µM in test [6]. The GI50 in test [7] is 1.99 µM; in test [8], 1.69 µM; in test [9] it was 1.56 µM; in test [10], 1.99 µM. Further, the TGI stood at 18.4 µM in test [1]; 20.6 µM in test [2]; 2.67 µM in test [3]; 3.33 µM in test [4]; 16 µM in test [5]; 2.79 µM in test [6]. Besides, the TGI is 6.56 µM in test [7], 4.46 µM in test [8], 3.13 µM in test [9] and 5.81 µM in test [10].

Regarding `COc1ccc(/C=C/C(=O)c2sc(N)nc2C)cc1`, the TGI in [1], in test [2], in test [3], in test [4], in test [5] and in test [6] was over 100 µM each time. For the same molecule, the TGI in [7], in [8], in test [9] and in test [10] was over 100 µM in each case.

Consider `COC(=O)[C@]12CC[C@@H](C)[C@H](C)[C@@H]1C1=CC[C@@H]3[C@@]4(C)C[C@@H](OC(=O)c5ccco5)[C@H](O)[C@@](C)(CO)[C@@H]4[C@H](O)C[C@@]3(C)[C@]1(C)CC2`, for which the GI50 in test [1] is 2.5 µM; in test [2], 2.44 µM; in [3], 2.99 µM; in [4] it was 1.82 µM; in test [5], 1.97 µM; in test [6], 1.82 µM. In addition, the GI50 in test [7] is 3.37 µM; in [8], 1.66 µM; in test [9], 1.97 µM; in test [10] it was 2.87 µM. The TGI in test [1] turned out to be 7.75 µM; in test [2] it was 7.05 µM; in test [3], 10.9 µM; in test [4], 3.44 µM; in [5], 3.87 µM; in test [6] it was 3.96 µM. For the same molecule, the TGI in test [7] amounted to 10.4 µM; in test [8] it was 3.34 µM; in test [9], 4.21 µM; in [10] it was 7.55 µM.

`COc1cccc(Nc2nc(NNC(=O)Cc3ccccc3)nc(NNC(=O)c3ccncc3)n2)c1`: the TGI in test [1], in test [2], in test [3], in [4], in [5] and in [6] was over 100 µM in each case. Moreover, the TGI in test [7], in [8], in test [9] and in test [10] was over 100 µM each time. Besides, the GI50 in test [2], in test [3], in test [4], in test [5], in test [7] and in test [9] was over 100 µM throughout. Further, in [10], the GI50 is over 100 µM.

In the case of `Cc1cccc(CN(C)c2ccc(CO)c(Cl)c2)c1`, the GI50 in test [1] was 0.0433 µM; in [2], 4.58 µM; in test [3], 3.71 µM; in test [4], 4.86 µM; in test [5] it was 2.04 µM; in test [6], 17.6 µM. Further, the GI50 in [7] was 16.1 µM; in [8], 9.52 µM; in test [9], 5.07 µM; in test [10] it was 0.565 µM. Moreover, the TGI turned out to be 0.184 µM in test [1]; 34.4 µM in [2]; 44.3 µM in test [3]; 17.7 µM in [4]; 15.8 µM in test [5]; 57.8 µM in test [6]. Further, the TGI is over 79.5 µM in test [7], 27.8 µM in [8], 43.6 µM in test [9] and 2.22 µM in test [10].
